The subject of test [1] is phosphorylated GSK3β serine 9 (pGSK3β). The test can be described thus: AlphaScreen SureFire detection of pGSK3β in U87MG cells. The class given is cell-based. Particulars: Homo sapiens, U-87 MG, 1 hour. On the procedure:
(§1) The effect of compounds on the formation of endogenous phosphorylated S6 ribosomal protein serine 240/244 (pS6) and phosphorylated GSK3β serine 9 (pGSK3β) are measured using the AlphaScreen SureFire® for either pS6 (TGR Biosciences, TGRS6P2S10K) or pGSK3β(TGRGBS10K). This is a homogeneous assay format using immuno-sandwich capture of the phosphorylated analyte followed by detection using antibody-coated Alphascreen beads to generate an amplified signal.
(§2) U87MG cells are maintained in U87MG growth medium consisting of DMEM supplemented with 10% Fetal bovine serum (FBS), 1% Nonessential amino acids and 1% sodium pyruvate. For the assay, cells are harvested by standard procedures and then counted using Vi-Cell. Cells (50,000/well) are plated in 100 μL of U87MG growth medium into Costar #3596 96 well plates. […]
(§3) On the day of the assay, cells are treated with 20 μL/well compound diluted in media containing 6% DMSO. […] The plate is sealed with foil, incubated at RT for 4 hours with gentle shaking and then read on Perkin Elmer EnVision equipped with a TurboModule using standard AlphaScreen® settings (Ex680nm and Em520-620nm). The percent inhibition determined from controls on each plate and ten-point compound concentration data are then fit to a four-parameter logistic equation using ACTIVITYBASE 4.0 (Assay Guidance Manual Version 5.0, 2008, Eli Lilly and Company and NIH Chemical Genomics Center).
For orientation: In Alpha technology, singlet oxygen from a donor bead excites a nearby acceptor bead.

For another test, the system named is pAKT S473. The test can be described thus: p70 S6K/AKT In Vivo Target Inhibition, U87MG xenograft, pAKT. Further details: species or system athymic nude mice. The note with it: Mus musculus, U-87 MG, IV Dose 12.5 mpk, U87MG tumors. Here is the method: U87MG human glioblastoma cells (5×106) are subcutaneously implanted into the flank of athymic nude mice in 0.2 mL of matrigel. Two weeks post-implantation, mice are dosed orally or parenterally according to a time course, single dose/single time point, or dose response protocol for the determination of TMED50 (threshold minimum effective dose). Tumors are flash frozen at harvest and blood is collected for the determination of parent compound plasma exposure and the calculation of TMEC50 (threshold minimum effective concentration) in the case of dose response studies. Tumors or tissues are pulverized in liquid N2 and lysed in 400 μL of XY Lysis Buffer (10 μg/mL Leupeptin, 10 μg/mL Trypsin-Chymotrypsin Inhibitor, 10 μg/mL Tosyl phenyl-alanyl chloromethyl ketone, 10 μg/mL Aprotinin, 60 mM Beta-Glycerol Phosphate, 1% Triton X100, 25 mM Tris pH 7.5, 2.5 mM Pyrophosphate, 150 mM NaCl, 2 mM p-tosyl-L-arginine methyl ester, 15 mM para-nitrophenyl phosphate, 5 mM Benzamidine, 1 mM Na Vanadate, 10 mM NaF, 50 μg/mL phenyl-methane sulfonyl fluoride, 1 mM 1,4-Dithiothreitol (DTT), 15 mM EDTA pH 8.0, 5 mM EGTA pH 8.0, 1 μM Microcystin, 1 μM Okadaic Acid, and 1 Roche Complete protease inhibitor mini-tablet per 10 mL) using Lysing Matrix D tubes (MP Biomedicals, Solon, Ohio, cat#6913-500) and a BIO101 Thermo Savant Fast Prep FP12. Lysates are aliquoted and either assayed immediately or stored at −80° C. for later testing. In Vivo Target Inhibition of p70 S6K and AKT is measured utilizing Meso Scale Discovery (Gaithersburg, Md.) ELISA technology to assess effects on phosphorylation of the serine 240/244 site of the downstream effector S6RP. Phosphorylation of p70 S6K(T389), AKT(5473) and GSK3β(S9) is also assessed using this technology in a multiplex format. In summary, 20 μg of lysate is added to carbon electrode containing 96-well plates pre-spotted with the appropriate capture antibodies. The protein of interest is probed using a ruthenium labeled detection antibody. Upon the passage of current over the electrode in the presence of read buffer containing the co-reactant TPA, electro-chemiluminescence results in the generation of light which is quantified and recorded using the MSD Sector 6000 instrument. For each study, percent inhibitions are calculated relative to the vehicle control group and ANOVA analysis is performed using the JMP software package for the determination of statistical significance.

The test system of test [2] is phosphorylated S6 ribosomal protein serine 240/244 (pS6). The experiment in a line: AlphaScreen SureFire detection of pS6 in U87MG cells. The class given is cell-based. The note with it: Homo sapiens, U-87 MG, 1 hour. On the procedure:
as §1, §2, §3

The target in the next test is T1, AKT1 (Homo sapiens, UniProt P31749).
T1 construct: His tag; host or cells: insect cells
The experiment in a line: AKT1 In Vitro Enzyme Assay (Transcreener Kinase ADP-FP). The class given is biochemical. The note with it: 20 micromolar ATP; read-out: IC50 against AKT1. Here is the method: Compound IC50 values against AKT1 target are determined using the AKT1 Transcreener™ Kinase ADP-FP Assay. This assay assesses the activity of AKT1 in the presence of compound inhibitors by measuring the concentration of ADP formed in a kinase reaction. The kinase reactions (25 μL reaction volumes) are performed in 96-well half-area black polystyrene plates. ATP is added to start the reactions. Final reaction conditions are 56 millimolar HEPES pH 7.4, 0.008% TRITON™ X-100, 5 millimolar magnesium chloride, 30 micromolar Crosstide peptide, 20 micromolar ATP, hAKT1 Human Recombiant, V-AKT Murine Thymoma Viral Oncogene Homolog 1, histidine-tagged, expressed in insect cells, 4% DMSO and serial dilutions of compound (diluted 1:3 from 20,000 to 1 nanomolar). […] Quenched reactions are incubated for 4-16 hours, and then read in a Tecan Ultra Evolution plate reader in Fluorescence Polarization mode using polarizing filters of Ex612nm and Em633nm wavelength. […] The IC50 value for each compound is derived using percent inhibition data which is calculated using the micromolar ADP reaction data relative to on-plate controls (active enzyme versus 100 millimolar inhibited enzyme controls). […]

SMILES strings stand for the structures.

T1 sequence (P31749 whole entry): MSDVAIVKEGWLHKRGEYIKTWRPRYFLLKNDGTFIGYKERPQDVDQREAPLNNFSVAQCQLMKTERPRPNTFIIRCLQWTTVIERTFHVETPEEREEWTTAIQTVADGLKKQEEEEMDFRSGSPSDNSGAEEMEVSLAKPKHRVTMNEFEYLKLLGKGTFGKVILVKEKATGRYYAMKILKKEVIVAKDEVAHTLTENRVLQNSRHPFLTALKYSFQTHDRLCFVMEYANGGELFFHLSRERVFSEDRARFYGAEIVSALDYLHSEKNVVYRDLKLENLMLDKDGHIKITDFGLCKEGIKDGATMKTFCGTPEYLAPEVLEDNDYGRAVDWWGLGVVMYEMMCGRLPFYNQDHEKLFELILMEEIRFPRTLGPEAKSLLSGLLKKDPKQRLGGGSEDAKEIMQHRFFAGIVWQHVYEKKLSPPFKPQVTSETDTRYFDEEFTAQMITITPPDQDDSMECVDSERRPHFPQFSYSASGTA

Turning to `CN(C)CCn1cc(-c2ccc(F)c(C(F)(F)F)c2)nc1C1CCN(c2ncnc3c2C(C)(C)C(=O)N3)CC1` [Example 31], the IC50 – broadly, the concentration that gives 50% inhibition – in test [1] was determined as 331 nM; in test [2], 65 nM; at AKT1 it was 6 nM. Moreover, the inhibition – broadly, the drop in the measured response relative to a control, in per cent – at 12.5 mg/kg in the test on pAKT S473 (1 hr post IV dose) is 4%; with pAKT S473 (2 hr post IV dose), -22.3%; with pAKT S473 (4 hr post IV dose) it was -19.2%; in the test on pAKT S473 (6 hr post IV dose), -26.3%; with pAKT S473 (8 hr post IV dose), -9.4%; with pAKT S473 (24 hr post IV dose) it was 22.6%.

Source of the values: US8148387B2, “AKT and P70 S6 kinase inhibitors” (Eli Lilly and Company, priority 2008, dated 2012).
